Experimental data taken from patent US20090286713A9, “Collagen Receptor I-Domain Binding Modulators” (Biotie Therapies Corporation, priority 2005, published 2009).

Assays:
[1] = molecular target: T1, α2 I-domain (Homo sapiens, UniProt P17301); assay: Solid-phase binding assay, α2 I-domain binding to type I collagen
T1 construct: corresponded to amino acids 124-339 of the whole α2 integrin; made in house; host or cells: E. coli BL21 (pGEX-2T)
T1 sequence (P17301 153-368): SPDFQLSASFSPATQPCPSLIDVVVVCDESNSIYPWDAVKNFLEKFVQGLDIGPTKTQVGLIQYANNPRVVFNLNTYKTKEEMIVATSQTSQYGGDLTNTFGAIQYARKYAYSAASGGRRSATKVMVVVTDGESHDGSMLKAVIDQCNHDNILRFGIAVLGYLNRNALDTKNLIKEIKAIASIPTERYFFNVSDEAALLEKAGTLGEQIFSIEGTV
Method: (§1) Solid-phase binding assay for α1-domains—The coating of a 96-well high binding microtiter plate (Nune) was done by exposure to 0.1 ml of PBS containing 5 μg/cm2 (15 μg/ml) collagens or 20 μg/ml triple-helical peptides overnight at +4° C. Blank wells were coated with 1:1 solution of 0.1 ml Delfia® Diluent II (Wallac) and PBS. Residual protein absorption sites on all wells were blocked with 1:1 solution of 0.1 ml Delfia® Diluent II (Wallac) and PBS. Recombinant proteins (αI-GST) were added to the coated wells at a desired concentration in Delfia® Assay Buffer and incubated for 1 h at room temperature. Europium-labelled anti-GST antibody (Wallac) was then added (typically 1:1000), and the mixture was incubated for 1 h at room temperature. All incubations mentioned above were done in the presence of 2 mM MgCl2. Delfia® enhancement solution (Wallac) was added to each well and the Europium signal was measured by time-resolved fluorometry (Victor2 multilabel counter, Wallac). At least three parallel wells were analyzed. In some cases some what modified solid-phase assay was used and it was performed according Tulla et al, 2001. It uses anti-GST and Europium-labelled protein G instead of Europium-labelled anti-GST antibody.
(§2) The tetracyclic Streptomyces compounds synthesised in Example 1, where screened for inhibition of collagen binding to α1 and α2 I-domains, using the α I-domain assay described in Example 4. […] L3015 could inhibit the binding of both α1I and α2 I-domains to type I and type IV collagen (FIG. 6B).
Based on the utilization of 3D model other compounds from the polyketide family were tested. The compounds were tested in the europium-labelled anti-GST assay described in Example 4. Tetracyclic polyketides L3007, L3008, and L3009 could inhibit α2 I-domain binding to type I collagen (FIG. 8A).

[2] = molecular target: T2, α1 I-domain (Homo sapiens, UniProt P56199); assay: Solid-phase binding assay, α1 I-domain binding to type I collagen; settings: at 0.05 mM concentration; FIG. 9
T2 construct: corresponding to amino acids 123-338 of the whole α1 integrin; made in house; host or cells: E. coli BL21 (pGEX-4T-3)
T2 sequence (P56199 151-366): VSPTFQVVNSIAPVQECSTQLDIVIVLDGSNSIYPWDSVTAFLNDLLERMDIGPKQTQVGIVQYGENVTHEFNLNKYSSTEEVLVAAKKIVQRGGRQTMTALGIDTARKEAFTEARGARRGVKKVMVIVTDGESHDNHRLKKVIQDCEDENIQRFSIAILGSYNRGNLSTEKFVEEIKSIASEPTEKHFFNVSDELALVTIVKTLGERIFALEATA
Method: as §1, §2
Furthermore α1I and α2 I-domain binding to collagen I in the presence of lovastatin was tested in the europium-labelled anti-GST assay described in Example 4. Lovastatin is an allosteric inhibitor of leukocyte integrin α I-domains (e.g. αL I-domain), and the binding site of lovastatin represents an optional binding site for possible modulators. […] These biological tests gave further evidence that collagen receptor α I-domains are inhibited by direct blocking of the MIDAS surface by tetracyclic polyketide.

[3] = molecular target: T3, α10 I-domain (Homo sapiens, UniProt O75578); assay: Solid-phase binding assay, α10 I-domain binding to type I collagen; settings: at 0.05 mM concentration; FIG. 9
T3 construct: corresponding to amino acids 141-337 of the whole α10 integrin; made in house; host or cells: E. coli BL21 (pGEX-2T)
T3 sequence (O75578 163-359): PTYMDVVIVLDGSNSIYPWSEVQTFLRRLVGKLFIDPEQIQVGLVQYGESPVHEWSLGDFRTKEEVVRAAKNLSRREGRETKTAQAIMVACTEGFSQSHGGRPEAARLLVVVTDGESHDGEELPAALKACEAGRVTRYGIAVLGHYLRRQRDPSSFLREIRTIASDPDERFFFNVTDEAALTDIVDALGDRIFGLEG
Method: as §1
(§3) The inhibitory effect of L3009 was tested with all collagen binding integrin α I-domains, α1I, α2I, α10I and α11I as described in Example 4. […]

[4] = molecular target: T4, α11 I-domain (Homo sapiens, UniProt Q9UKX5); assay: Solid-phase binding assay, α11 I-domain binding to type I collagen; settings: at 0.05 mM concentration; FIG. 9
T4 construct: two extra residues before α11I, residues 159-354; made in house; host or cells: E. coli BL21
T4 sequence (Q9UKX5 159-354): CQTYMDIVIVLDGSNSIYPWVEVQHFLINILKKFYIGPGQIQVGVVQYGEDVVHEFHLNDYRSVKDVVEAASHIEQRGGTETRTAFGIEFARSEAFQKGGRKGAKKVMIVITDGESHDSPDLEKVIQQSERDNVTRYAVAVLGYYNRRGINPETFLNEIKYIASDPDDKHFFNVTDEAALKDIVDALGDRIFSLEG
Method: as §1, §3

COC(=O)c1c(C(C)C)cc(O)c2c(O)c3c(c(O)c12)C(=O)c1cccc(O)c1C3=O [Compound L3009, methyl 4,5,7,12-tetrahydroxy-2-methylethyl)-6,11-dioxonaphthacenecarboxylate]
could inhibit: inhibition of α2 I-domain binding to type I collagen (in words) ([1]; FIG. 6B, 7A, 8A) | inhibition of collagen I binding of α2I ([1]; at 0.05 mM concentration, FIG. 9) | inhibition of collagen I binding of α1I [2] | inhibition of collagen I binding of α10I [3] | inhibition of collagen I binding of α11I [4]
